# Data as given in patent US20060079490A1, “Method of treatment of type I diabetes” (priority 2001, published 2006).
# Where two headings read alike, the source gives them in different places.
# Columns and labels:
# [1] = system: Non-Obese Diabetic (NOD/LtJ) mice; assay: Diabetes incidence (serum glucose >300 mg/dL) in vitamin D-deficient NOD mice given 1,25(OH)2D3 in the diet; type: in vivo, mouse; settings: for incidence of diabetes: 50 ng/mouse/day in diet from weaning, at termination of experiment
# Excerpt: Non-Obese Diabetic (NOD/LtJ) mice were purchased from The Jackson laboratory (Bar Harbor, Me. 04609). Mice were maintained on highly purified vitamin D-deficient diet containing 0.47% calcium and 0.3% phosphorus supplemented with vitamins A, E, and K. This diet was solidified by the addition of molten agar to a powdered diet. To obtain vitamin D-deficiency in the offspring, pregnant mothers were maintained on the vitamin D-deficient diet. Then, offspring, once weaned, were further maintained on the vitamin D-deficient diet. […] Treatment with 1,25(OH)2D3 was started at weaning. Animals were bled from the extraorbital sinus with a glass pipette after a four hour fast at 2 pm once a week. Serum glucose was determined using the Trinder glucose oxidase enzyme assay kit purchased from Sigma (St. Louis, Mo.). 5 μL of NOD serum was used as an unknown and analyzed spectrophotometrically at 505 nm against a known glucose standard (Sigma, St. Louis, Mo.). An animal was considered diabetic if its serum glucose was greater than 300 mg/dL.
# [2] = Serum calcium and hypercalcemia in NOD mice given dietary 1,25(OH)2D3 (study A); type: in vivo, mouse; settings: for serum calcium: 50 ng each day
# Excerpt: Non-Obese Diabetic (NOD/LtJ) mice were purchased from The Jackson laboratory (Bar Harbor, Me. 04609). Mice were maintained on highly purified vitamin D-deficient diet containing 0.47% calcium and 0.3% phosphorus supplemented with vitamins A, E, and K. This diet was solidified by the addition of molten agar to a powdered diet. To obtain vitamin D-deficiency in the offspring, pregnant mothers were maintained on the vitamin D-deficient diet. Then, offspring, once weaned, were further maintained on the vitamin D-deficient diet. […] Animals were bled from the extraorbital sinus with a glass pipette after a four hour fast at 2 pm once a week.
# Blood was immediately centrifuged to obtain serum. Serum was diluted in 0.1% lanthanum chloride, and serum calcium was measured by atomic absorption using a Perkin-Elmer model 3110 atomic absorption spectrometer.
# female NOD/LtJ mice [3] = assay: Injection vs. Dietary Study: diabetic incidence at day 200; type: in vivo, mouse
# Experimental: NOD/LtJ mice were fed control diets (purified Diet 11 as described in Suda, et al., J. Nutr. 100:1049-1052 1970, 0.47% calcium +vitamins A, D, E and K) or experimental diets (control +10, 25 or 50 ng of 1,25D3/mouse/day).
# Control (vehicle) animals were injected with 50 μL sterile peanut oil while the experimental animals were injected with 5 μg/kg 1,25D3/mouse/2 days in sterile peanut oil.
# (§1) Mice were weaned at 21 days and placed on the appropriate diets. Injections and experimental diets were administered every 48 hours. Control diets were fed 3 times/week. Every 10 days beginning at day 30 and ending on day 170, mice were weighed and bled for serum calcium determination. Beginning on day 70, mice were tested for glucosuria 3 times/week. If a mouse tested positive, it was fasted for 4 hours and bled to measure serum glucose levels. If the fasting serum glucose level was greater than 300 mg%, the mouse was considered diabetic. All mice remaining at 200 days were sacrificed.
# [4] = mouse, in vivo
# Experimental: as §1
# NOD/LtJ mice = assay: Diabetes incidence by 200 days with 1,25(OH)2D3 diet started at weaning, 8 weeks or 100 days (study C); type: in vivo, mouse
# Experimental: Animals: Mice from an in-house breeding colony of NOD/LtJ mice (Jackson Laboratory) were used for this study. Female mice were randomly weaned into each dietary group. 24 mice were used per group.
# Diet Preparation: Experimental purified diets were prepared containing 0.47% calcium supplemented with 25 IU vitamin D3 (Diet 11). […] All purified powder diets were solidified by mixing with molten agar to ensure animals consumed the exact dose of 1,25(OH)2D3. Each mouse was administered 3.5 grams of powder diet per day.
# Diet Administration: Experimental purified diets were administered beginning at weaning (3 weeks of age) until 200 days of age. 1,25(OH)2D3-containing diet was administered beginning at weaning (group 2), beginning at 8 weeks of age (group 3), or beginning at 100 days of age (group 4).
# Serum glucose determination: Serum glucose was measured using an enzymatic colorimetric assay (Glucose liquicolor, Stanbio, Boerne, Tex.).
# Disease analysis: Urine samples were obtained twice weekly from animals older than 70 days of age and tested for urinary glucose using Diastix (Bayer, Elkhart, Ind.). Serum glucose was measured from animals with urine glucose readings >250 mg/dL. Animals with multiple serum glucose values >300 mg/dL at least 24 hours apart were considered diabetic and sacrificed via CO2 asphyxiation. All remaining animals were sacrificed at 200 days of age.
# female NOD/LtJ mice [5] = assay: Injection vs. Dietary Study: diabetic incidence at day 200; type: in vivo, mouse; settings: injection of 50 μg/day (so in the source)
# NOD mice = settings: cited from earlier work; for total diabetes incidence at 200 days: control 86%
# [6] = administered from 100 to 200 days of age
compound,measurement,setting,value
"C=C1/C(=C\C=C2/CCC[C@]3(C)[C@@H]([C@H](C)CCCC(C)(C)O)CC[C@@H]23)C[C@@H](O)C[C@@H]1O [1,25(OH)2D3, 1α,25-dihydroxyvitamin D3]",serum glucose values,"[1]; 200 ng group, at any time",≤ 300 mg/dL
same,incidence of diabetes,[1]; female NOD mice,7.69%
same,incidence of diabetes,[1]; male NOD mice,7.14%
same,serum calcium levels (evidence of hypercalcemia),[2]; 200 ng group,≥ 12 mg/dL
same,serum calcium,"[2]; females, at 40 days",10.50 ± 1.53 mg/dL
same,serum calcium,"[2]; females, at 150 days of age",13.10 ± 1.01 mg/dL
same,number of NOD females died of hypercalcemia,"[2]; females, 50 ng, by 150 days of age",7
same,serum calcium,"[2]; males, at 40 days",9.22 ± 0.93 mg/dL
same,serum calcium,"[2]; males, at 150 days of age",12.78 ± 1.11 mg/dL
same,db %=,"female NOD/LtJ mice [3]; 10 ng diet, day 200",11%
same,db n=,"female NOD/LtJ mice [3]; 10 ng diet, day 200, n=9",1
same,db %=,"female NOD/LtJ mice [3]; 25 ng diet, day 200",22%
same,db n=,"female NOD/LtJ mice [3]; 25 ng diet, day 200, n=9",2
same,db %=,"female NOD/LtJ mice [3]; 50 ng diet, day 200",25%
same,db n=,"female NOD/LtJ mice [3]; 50 ng diet, day 200, n=8",2
same,diabetes incidence,"female NOD/LtJ mice [3]; in the diet (oral treatment), day 200",10-25%
same,db %=,"female NOD/LtJ mice [3]; injected 5 μg/kg/2 days in peanut oil, day 200",71%
same,db n=,"female NOD/LtJ mice [3]; injected 5 μg/kg/2 days in peanut oil, day 200, n=7",5
same,incidence of diabetes,"female NOD/LtJ mice [3]; injected, day 200",over 70%
same,hypercalcemia,[4],clearly caused hypercalcemia
same,became diabetic by 200 days of age,"NOD/LtJ mice; 50 ng in diet after 100 days of age (group 4), 23 animals",8.7%
same,animals that became diabetic by 200 days of age,NOD/LtJ mice; 50 ng in diet beginning at 8 weeks of age (group 3),0 of 24
same,became diabetic by 200 days of age,"NOD/LtJ mice; 50 ng in diet from weaning (group 2), 24 mice",4.2%
same,effect of injection on incidence of diabetes,female NOD/LtJ mice [5],increased rather than decreased the incidence of diabetes
same,diabetic incidence,NOD mice; [6],same diabetic incidence as the control group
same,onset of diabetes,NOD mice; [6],appeared to be slightly delayed
same,incidence of diabetes,"NOD mice; female NOD mice, injection of 5 μg/kg, control 56%",8%
same,bone calcium,"NOD mice; mouse, in vivo",reduced
same,total diabetes incidence at 200 days,NOD mice; treated only until 100 days of age,about 35%
same,total diabetes incidence at 200 days,NOD mice; treated until 200 days of age,13%
